Data: paper PMC6482291, “Anticonvulsant Activity of Pterostilbene in Zebrafish and Mouse Acute Seizure Tests” (Neurochemical Research, 2019)
Each block holds one compound with its values, some of them ahead of it.

How the values were obtained:
[1] = test system: PTZ-induced seizures in mice; experiment: Timed iv PTZ seizure threshold test in mice; type: in vivo; conditions: VPA 150 mg/kg ip, 15 min before test
Description: Each mice was placed in the cylindrical restrainer and the needle (27G, 3/4 in., Sterican®, B. Braun Melsungen AG, Melsungen, Germany) was injected into the lateral tail vein. The needle was attached by the polyethylene drain (PE20RW, Plastic One Inc. Roanoke, VA, USA) with the syringe containing 1% solution of PTZ (Sigma–Aldrich, St. Louis, MO, USA) in water and the syringe was located in the infuse pomp (model Physio 22, Hugo Sachs Elektronik–Harvard Apparatus GmbH, March-Hugstetten, Germany). The correct placement of the needle in the vein was confirmed based on the presence of the blood in the drain and the needle was protected against displacement by a peace of adhesive tape. Following injection, mice were took out from the restrainer and placed in the Plexiglas box for observation. The PTZ solution was infused into the vein at a constant rate of 0.2 ml/min. The time intervals from the start of infusion of PTZ solution to the beginning of three kinds of seizures, i.e., the first myoclonic twitch, generalized clonus with loss of the righting reflex and forelimb tonic extension, were noted. Infusion of PTZ solution was stopped immediately after onset of the tonic seizures, which usually were lethal. If animal survived the test, it was euthanized immediately. The threshold dose of PTZ (in mg/kg body weight) for each kind of seizures was calculated according to the following formula: PTZmg/kg=infusion durations×infusion rateml/s×PTZ concentrationmg/ml/weightkg
Experimental groups consisted of 9–13 animals. The data obtained in the iv PTZ test are presented as the threshold dose of PTZ (in mg/kg) + standard error of the mean (SEM) needed to elicit the respective kind of seizures. The data were analyzed by one-way ANOVA followed by the Tukey’s multiple comparison test. Statistical significance was noted when p values were equal or lower than 0.05.

[2] = test system: maximal electroshock seizures in mice; experiment: Maximal electroshock seizure threshold (MEST) test; type: in vivo; conditions: VPA 150 mg/kg ip
Text: Seizures in the MEST test were evoked by applying a sine-wave alternating current (maximal output voltage 500 V, 50 Hz for 0.2 s) generated by constant current stimulator (Rodent Shocker, Type 221, Hugo Sachs Elektronik, Freiburg, Germany). The stimulation was delivered by saline-socked transcorneal electrodes. Before the stimulation 1% solution of tetracaine hydrochloride was applied into animals’ eyes for local anesthesia. During the stimulation animals were restrained manually and immediately after the stimulation they were placed in the Plexiglas box for observation. The endpoint evaluated in the test was the maximal electroconvulsion which was defined as extension of the hindlimbs above a 90° angle to the torso of animal.
The threshold for maximal electroshock was determined according to the up-and-down method described by Kimball et al.. The mice in the experimental group were subjected to the stimuli with different current intensities (range of 8–30 mA) which changes in 0.06-log steps. If stimulated mouse respond with seizures, the next mouse in the group was stimulated with current of intensity 0.06-log step lower than the previous one. […] Groups of 20 stimulated animals were used to calculate the threshold current strength (CS50 in mA; the current strength which induces tonic hindlimb extension in 50% of the tested animals) with SEM.
CS50 values were compared with one-way ANOVA followed by the Tukey’s multiple comparison test.

[3] = test system: 6 Hz-induced psychomotor seizures in mice; experiment: 6 Hz psychomotor seizure threshold test; type: in vivo; conditions: VPA 50 mg/kg ip, 15 min before test; 95% confidence limits in brackets
Text: Psychomotor (limbic) seizures were induced by transcorneal stimulation (6 Hz, 0.2 ms rectangular pulse, 3 s duration) generated by a Grass S48 stimulator coupled with a constant current unit CCU1 (both from Grass Technologies, West Warwick, RI, USA). Before stimulation a drop of ocular anesthetic, 1% tetracaine hydrochloride solution, was applied into the animals’ corneas. The electrodes were soaked in saline to ensure the good electrical contact. During the stimulation animals were restrained manually and immediately after the stimulation were placed in a Plexiglas box for observation of presence or absence of the psychomotor seizures. These seizures were characterized by immobilization or stun, often associated with rearing, forelimb clonus, twitching of vibrissae and elevated tail (Straub-tail), lasting at least 10 s from the stimulation. Lack of the above symptoms or their cessation within 10 s from the stimulation was considered as absence of seizure activity.
In the present study two 6 Hz-induced psychomotor seizure tests were performed: (1) the 6 Hz psychomotor seizure threshold test which employed stimulation at varied current intensities, and (2) the 6 Hz psychomotor seizure test with supramaximal stimulation at 32 mA and 44 mA.
In the 6 Hz psychomotor seizures threshold test, threshold current intensity (CS50 in mA) was estimated in groups of 20 animals according to the above mentioned up-and-down method.

mice [4] = experiment: Grip-strength test; type: in vivo; conditions: 15 min before test
Description: The acute effect of PTE on the skeletal muscles strength in mice was determined in the grip strength test. The apparatus for this test (BioSeb, Chaville, France) consisted of a steel wire grid (8 × 8 cm) connected to an isometric force transducer. Each mouse was lifted by tail and allowed to grasp the grid with its forepaws and then it was gently pulled backward until its released the grid. The maximal force in newtons (N) exerted by mouse before leaving the grid was recorded. The mean of three consecutive measurements for each animal was calculated and normalized to body weight (mN/g).
Experimental groups consisted of 12 animals. Results obtained in the grip-strength test were compared using one-way ANOVA followed by the Tukey’s post-hoc multiple comparison test.

mice [5] = experiment: Chimney test; type: in vivo; conditions: 15 min before test
Description: The chimney test was performed to evaluate influence of PTE on motor coordination in mice. During the test mice had to climb backwards up the plastic transparent cylinder (inner diameter 3 cm and length 30 cm) with gravelly inside. The inability of mice to escape from the cylinder within 60 s was considered as an motor impairment. Results obtained in the test were presented as percent of impaired mice in groups of 10–12 animals and were compared with the Fisher’s exact probability test.

[6] = test system: PTZ-induced seizures in rats; conditions: PTZ test in rats; cited from earlier work
MES seizures in mice = test system: MES seizures in mice; design: method as in PMID 27600732; conditions: cited from earlier work
[7] = test system: 6 Hz psychomotor seizures in mice; design: method as in PMID 27600732; conditions: cited from earlier work
rats = test system: rats; design: method as in PMID 24717328; conditions: acute and chronic administration; cited from earlier work
mice [8] = experiment: Forced swim test; type: in vivo; conditions: IMI 20 mg/kg ip; p < 0.05
Description: The forced swim test was carried out according to the method described by Porsolt et al. to assess antidepressant properties of PTE. Mice were placed individually in a glass cylinder (25 cm high; 10 cm diameter) containing tap water to a depth of 11 cm. Water was maintained at temperature of 23–25 °C. Mice were permitted to swim for 6 min and duration of their immobility was recorded during the last 4 min of the test by a trained experimenter who was blinded to the treatment. Immobility time was recorded using cumulative stopwatches. Mouse was considered to be immobile when it was floating in the water without struggling and making no attempts to escape, it was making only these movements necessary to keep its head above the water. After each trial, the water in the cylinder was replaced with fresh water. Experimental groups consisted of 10 animals.
Data obtained in the forced swim test were expressed as the mean (in s) + SEM immobility time in each experimental group. Results were analyzed by one-way ANOVA.

Neuromuscular strength (mice [4]; VPA 50 mg/kg ip): 31.12 ± 1.20 mN/g
Neuromuscular strength (mice [4]; VPA 150 mg/kg ip): 25.36 ± 0.92 mN/g
Impairment of motor coordination (percentage of animals) (mice [5]; VPA 50 mg/kg ip): 0%
Impairment of motor coordination (percentage of animals) (mice [5]; VPA 150 mg/kg ip): 0%
Compound: CCCC(CCC)C(=O)O [VPA, valproic acid, reference compound]
threshold for the first myoclonic twitch vs negative control ([1]; p < 0.001): Statistically significant increases
increase of threshold for generalized clonic seizures vs negative control ([1]; p < 0.01): over 45%
threshold for tonic forelimb extension vs negative control ([1]; p < 0.01): Statistically significant increase
CS50 (seizure threshold) ([2]; 15 min before test, 95% confidence limits in brackets): 14.13 (13.27–15.04) mA
increase of seizure threshold vs negative control ([2]; p < 0.001): ~ 49%
CS50 (psychomotor seizure threshold) [3]: 15.97 (15.13–16.85) mA

Compound: Oc1ccc(/C=C/c2cc(O)cc(O)c2)cc1 [RES, resveratrol]
duration of clonic seizures [6]: reduced the duration
incidence of the generalized tonic-clonic seizures [6]: decreased incidence
anticonvulsant activity in the MES test (MES seizures in mice): showed significant anticonvulsant activity neither in the MES nor 6 Hz psychomotor seizure tests
anticonvulsant activity in the 6 Hz psychomotor seizure test [7]: showed significant anticonvulsant activity neither in the MES nor 6 Hz psychomotor seizure tests
immobility time in the forced swim test (rats): decreased immobility time

Compound: CN(C)CCCN1c2ccccc2CCc2ccccc21 [IMI, imipramine, reference compound]
immobility time vs control (mice [8]): Statistically significant difference
